# Patent US20180098538A1, “CONFIGURATIONAL STEREOISOMER OF DIFETHIALONE, COMPOSITION AND RODENTICIDAL BAIT COMPRISING SAME, AND PROCESS FOR CONTROLLING TARGET RODENT PESTS” (priority 2015, published 2018)
# Assay type: in vivo
# Conditions: rats which consumed a bait comprising 15 ppm of difethialone of the prior art
# Experimental: For comparative purposes, the difethialone content retained in the liver of rats which consumed a bait comprising 15 ppm of difethialone of the prior art is about 110 μg/gram.
structure (smiles),measurement,value
"O=c1sc2ccccc2c(O)c1C1CC(c2ccc(-c3ccc(Br)cc3)cc2)Cc2ccccc21 (stereo not shown) [difethialone, 3-(4′-bromobiphenyl-4-yl)-1-(4-hydroxythiocoumarin-3-yl)-1,2,3,4-tetrahydronaphthalene]",Difethialone content retained in the liver,about 110 μg/gram
